1 sequence from paper PMC9296036, “A peptide interfering with the dimerization of oncogenic KITENIN protein and its stability suppresses colorectal tumour progression” (Clinical and Translational Medicine, 2022) can be followed below.

Ends that are not written are not given here.

The assay deals with Caco2/KITENIN-V5 cells. In words: Autophagosome staining (Cyto-ID) in Caco2/KITENIN-V5 cells. In kind it is cell-based. Conditions: KDIP 5 μM, similar to rapamycin positive control. The procedure: To test whether KDIP induces autophagy in KITENIN‐expressing Caco2 cells, cells were grown on coverslips for 24 h. Cells were washed with PBS and then stained with Cyto‐ID green fluorescence reagents (Enzo Life Sciences, Plymouth Meeting, PA) for 1 h at 37°C in a cell culture incubator. Cells were washed with PBS and mounted with […] mounting medium containing nuclear DAPI (Vector Lab). Cells were imaged by confocal microscope.
FIGURE 3 RACK1 binds to KAI1 C‐terminal interacting tetraspanin (KITENIN) and KITENIN dimerization‐interfering peptide (KDIP) stimulates the degradation of KITENIN by inducing increased binding of RACK1 to KITENIN. (A) RACK1 specifically binds to KITENIN. Caco2/KITENIN‐V5 cells were transfected with RACK1‐GFP for 48 h, immunoprecipitated with anti‐GFP antibody and immunoblotted with anti‐V5 antibody to detect KITENIN bound with RACK1 (left panel). […] The proteins in whole‐cell lysate (WCL) were detected with the indicated antibody. […] Caco2 cells were transfected with KITENIN‐V5 and/or RACK1‐GFP (left) or KITENIN‐V5 and/or si‐RACK1 (right), and their expression after treatment with KDIP (1 μM, 24 h) was detected with the indicated antibody (upper) or subjected to invasion assay (lower). […] Caco2/KITENIN‐V5 cells were treated with KDIP for 24 h and assessed by immunoblot analyses using an anti‐KITENIN, an anti‐p62, or an anti‐LC3B antibody (left panel). […]

Consider YARVRRRGPRRWRLVSDEAV [KDIP], for which the “formation of the autophagosome (in words)” value is given as “increased”.
